Results as given in paper PMC5790609 (Journal of neuroimmune pharmacology : the official journal …, 2017).

Experiments:
[1] = tested on: TSPO (C/T rs6971 genotype); experiment: [3H]-DPA-713 dissociation kinetics, platelet lysates, C/T genotype; type: binding, human; conditions: for effect on rate of dissociation of [3H]-DPA-713 vs. excess DPA-713: PK11195 5 μM, cholesterol 1.2 μM
[2] = ref Vivash and O'Brien 2016; cited from earlier work
[3] = target: TSPO (C/C rs6971 genotype) (Homo sapiens, UniProt P30536); experiment: [3H]-DPA-713 dissociation kinetics, platelet lysates, C/C genotype; type: binding; conditions: PK11195 5 μM, cholesterol 1.2 μM
[4] = target: TSPO (T/T rs6971 genotype) (Homo sapiens, UniProt P30536); experiment: [3H]-DPA-713 dissociation kinetics, platelet lysates, T/T genotype; type: binding; conditions: PK11195 5 μM, cholesterol 1.2 μM
Chain of TSPO (T/T rs6971 genotype) (P30536 2-169): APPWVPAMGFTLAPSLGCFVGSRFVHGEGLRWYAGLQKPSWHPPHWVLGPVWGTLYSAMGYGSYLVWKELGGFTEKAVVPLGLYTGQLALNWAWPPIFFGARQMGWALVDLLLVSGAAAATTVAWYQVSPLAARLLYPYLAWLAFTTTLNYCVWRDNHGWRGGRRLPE

Chain of TSPO (C/C rs6971 genotype) (P30536 whole entry): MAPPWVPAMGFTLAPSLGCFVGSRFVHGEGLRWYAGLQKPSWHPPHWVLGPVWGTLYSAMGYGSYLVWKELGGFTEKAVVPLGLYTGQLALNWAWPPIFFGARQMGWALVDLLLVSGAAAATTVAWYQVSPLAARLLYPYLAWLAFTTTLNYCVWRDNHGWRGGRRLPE

CCN(CC)C(=O)Cc1c(-c2ccc(OC)cc2)nn2c(C)cc(C)nc12 [DPA-713]
dissociation rates of [3H]-DPA-713 with 2 vs. 12 μM DPA-713 [1]: the same

CCC(C)N(C)C(=O)c1cc2ccccc2c(-c2ccccc2Cl)n1 (centres unmarked) [PK11195]
non-specific plasma protein binding [2]: high | effect on rate of dissociation of [3H]-DPA-713 vs. excess DPA-713 [1]: the same | effect on rate of dissociation of [3H]-DPA-713 vs. excess DPA-713 [3]: the same | effect on rate of dissociation of [3H]-DPA-713 vs. excess DPA-713 [4]: accelerated

CC(C)CCC[C@@H](C)[C@H]1CC[C@H]2[C@@H]3CC=C4C[C@@H](O)CC[C@]4(C)[C@H]3CC[C@]12C [cholesterol]
effect on rate of dissociation of [3H]-DPA-713 vs. excess DPA-713 [1]: the same | effect on rate of dissociation of [3H]-DPA-713 vs. excess DPA-713 [3]: the same | effect on rate of dissociation of [3H]-DPA-713 vs. excess DPA-713 [4]: accelerated
